Reference: patent publication US6960646B2, “Cyclic peptides as potent and selective melanocortin-4 receptors agonists” (Merck & Co., Inc., priority 2001, dated 2005)
Entries after “also recorded” stand apart in the source; their conditions may differ. Starred links: 1 amine or outer side, 2 acyl side, 3 side chain; linkers in the order of their positions; H or OH if unused. Positions of bridges follow the written chain, without caps; N, C: chain ends. Non-standard residues stand in square brackets, D forms with d. Residues, ends and D or L forms follow the SMILES beside them. ξ: configuration not given here. dPhe(4-Cl) = N[C@H](Cc1ccc(Cl)cc1)C(=O)O; 2Nal = N[C@@H](Cc1ccc2ccccc2c1)C(=O)O; Suc = O=C(CCC(=O)[*:2])[*:1]; ξE = NC(CCC(=O)O)C(=O)O; ξDab = NCCC(N)C(=O)O; ξK = NCCCCC(N)C(=O)O; ξDap = NCC(N)C(=O)O; Ava = NCCCCC(=O)O; GABA = NCCCC(=O)O; βAla = NCCC(=O)O

What was measured:
hMC-3R [1] = biological target: T1, hMC-3R (Homo sapiens, UniProt P41968); experiment: Competitive binding assay, [125I]-NDP-α-MSH, CHO cell membranes; conditions: 200 pM [125I]-NDP-α-MSH, read-out: Binding Assay IC50 hMC-3R
T1 construct: expressed in transfected cells; host or cells: Chinese hamster ovary (CHO) cells
T1 sequence (P41968 whole entry): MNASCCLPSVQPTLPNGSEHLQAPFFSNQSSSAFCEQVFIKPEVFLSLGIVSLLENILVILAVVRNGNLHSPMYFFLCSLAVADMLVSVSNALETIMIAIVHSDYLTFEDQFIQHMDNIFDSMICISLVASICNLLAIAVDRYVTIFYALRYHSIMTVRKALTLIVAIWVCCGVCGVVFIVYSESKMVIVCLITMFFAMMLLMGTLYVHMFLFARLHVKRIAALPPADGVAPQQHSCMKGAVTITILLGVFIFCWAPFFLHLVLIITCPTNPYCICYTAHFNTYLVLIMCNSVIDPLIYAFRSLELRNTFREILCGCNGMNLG
Description: (§1) The peptides of the present invention were evaluated for agonist activity in receptor binding assay. Crude membrane preparations were obtained from Chinese hamster ovary cells expressing human MC3, MC4, and MC5 receptors. Cells were rinsed with phosphate-buffered saline (PBS) lacking CaCl2 or MgCl2 (Life Technologies, Gaithersburg, Md., USA), and then detached with enzyme-free dissociation media (Specialty Media, Lavellette, N.J., USA). Cells were pelleted at 2800×g for 10 minutes and resuspended in membrane buffer (20 mM Tris, pH 7.2, 5 mM ethylenediaminetetraacetic acid) with 5 μg/ml leupeptin, 5 μg/ml aprotinin, 40 μg/ml bacitracin, and 25 μg/ml pefabloc (Boehringer Mannheim). The cells were […] with 10 strokes by using a motor-driven Teflon-coated pestle in a glass homogenizer at low speed. The resulting cell suspension was centrifuged at 4100×g, 4° C., for 20 minutes. The pellet was resuspended in fresh membrane buffer with protease inhibitors, aliquoted, snap-frozen in liquid nitrogen, and stored at −80° C. The resulting crude membranes were titrated to determine the optimal level necessary for performing binding studies.
(§2) Binding reactions (total volume=250 μl) contained MBB (50 mM Tris, pH 7.2, 2 mM CaCl2, 1 mM MgCl2), 0.1% bovine serum albumin, crude membranes prepared from cells expressing human MC3, MC4, or MC5 receptor, 200 pM of [125I]-NDP-α-MSH (Amersham, Arlington Heighs, Ill., USA), and increasing concentrations of unlabeled test compounds dissolved in dimethylsulfoxide (final concentration=2%). Reactions were incubated for 1 hour without shaking and then filtered through 96-well filter plates (Packard), presoaked in 1% polyethyleneimine. Filters were washed 3 times with TNE buffer (50 mM Tris, pH 7.4, 5 mM ethylene-diaminetetraacetic acid, 150 mM NaCl), dried and counted by using Microscint-20 in a Topcount scintillation counter (Packard). Nonspecific binding was determined in the presence of 2 μm of unlabeled NDP-α-MSH (Peninsula Laboratories). Active peptides were evaluated in three independent experiments.

hMC-4R [2] = biological target: T2, hMC-4R (Homo sapiens, UniProt P32245); experiment: as above; conditions: 200 pM [125I]-NDP-α-MSH, read-out: Binding Assay IC50 hMC-4R
T2 construct: expressed in transfected cells; host or cells: Chinese hamster ovary (CHO) cells
T2 sequence (P32245 whole entry): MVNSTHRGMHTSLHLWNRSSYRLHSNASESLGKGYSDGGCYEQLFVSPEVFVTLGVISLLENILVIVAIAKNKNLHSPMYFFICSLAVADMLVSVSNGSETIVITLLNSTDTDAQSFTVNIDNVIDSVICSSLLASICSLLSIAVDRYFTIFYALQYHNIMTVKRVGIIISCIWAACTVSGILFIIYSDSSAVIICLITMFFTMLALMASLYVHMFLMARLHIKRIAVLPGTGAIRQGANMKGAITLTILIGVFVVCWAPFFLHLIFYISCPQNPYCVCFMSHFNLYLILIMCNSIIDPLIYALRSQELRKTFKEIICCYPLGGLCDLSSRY
Description: as §1, §2

hMC-5R [3] = biological target: T3, hMC-5R (Homo sapiens, UniProt P33032); experiment: as above; conditions: 200 pM [125I]-NDP-α-MSH, read-out: Binding Assay IC50 hMC-5R
T3 construct: expressed in transfected cells; host or cells: Chinese hamster ovary (CHO) cells
T3 sequence (P33032 whole entry): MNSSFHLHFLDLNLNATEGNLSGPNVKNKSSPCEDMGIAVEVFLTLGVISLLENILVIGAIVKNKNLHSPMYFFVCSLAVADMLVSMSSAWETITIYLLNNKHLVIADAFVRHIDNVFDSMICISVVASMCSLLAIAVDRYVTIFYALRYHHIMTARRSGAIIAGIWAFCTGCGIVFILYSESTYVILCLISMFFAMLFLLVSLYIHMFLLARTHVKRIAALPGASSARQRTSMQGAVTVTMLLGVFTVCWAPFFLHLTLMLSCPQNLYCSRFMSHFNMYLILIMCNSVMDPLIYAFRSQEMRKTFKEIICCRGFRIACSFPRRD
Description: as §1, §2

hMC-3R [4] = biological target: T1, hMC-3R; experiment: cAMP assay in CHO cells expressing a human melanocortin receptor; type: cell-based; conditions: 45 minutes at room temperature
Description: (§3) Chinese hamster ovary cells expressing a human melanocortin receptor were rinsed with calcium- and magnesium-free PBS (Life Technologies), and detached from the tissue culture flasks by 5-minutes incubation with enzyme-free dissociation buffer (S-014-B, Specialty Media). Cells were collected by centrifugation and resuspended in Earle's balanced salt solution (Life Technologies) with addition of 10 mM 4-(2-hydroxyethyl)-1-piperazineethanesulfonic acid (Hepes) buffer, pH 7.5, 5 mM MgCl2, 1 mM glutamine, and 1 mg/ml bovine serum albumin to concentration of 1-5×10^6 cells/ml. Subsequently, cells were counted and the cell suspension was treated with the phosphodiesterase inhibitor 3-isobutyl-1-methylxanthine (to concentration of 0.6 mM).
(§4) A test compound was dissolved in dimethyl sulfoxide (DMSO, 10^−3 to 10^−8 M), diluted with buffer, and 0.1 volume of the solution was added to 0.9 volumes of the cell suspension (1 to 5×10^5 cells); final concentration of DMSO was 1%. After 45 minutes at room temperature, cells were lysed by incubation at 100° C. for 5 minutes to release accumulated cAMP. Accumulation of cAMP was measured in an aliquot of the cell lysate with the Amersham (Arlington Heights, Ill.) cAMP detection assay kit (RPA556). The amount of cAMP produced in response to a tested compound was compared to the amount of cAMP produced in response to α-MSH, defined as a 100% agonist. All active peptides were characterized in three independent experiments.

hMC-4R [5] = biological target: T2, hMC-4R; experiment: as above; type: cell-based; conditions: 45 minutes at room temperature
Description: as §3, §4

hMC-5R [6] = biological target: T3, hMC-5R; experiment: as above; type: cell-based; conditions: for EC50: CHO cells, 45 minutes at room temperature; for CAMP Assay hMC-5R, % activation at a single concentration: @ 5 (concentration unit not given), relative to α-MSH defined as a 100% agonist
Description: as §3, §4

[7] = rats, cited from earlier work; for Food intake: intraventricular administration / injection

Compound | IC50 (hMC-3R [1]) | IC50 (hMC-4R [2]) | IC50 (hMC-5R [3]) | EC50 (hMC-3R [4]) | EC50 (hMC-4R [5]) | EC50 (hMC-5R [6]) | CAMP Assay hMC-5R, % activation at a single concentration (hMC-5R [6]) | Food intake [7] | Body weight ([7]; intraventricular administration)
N=C(N)NCCC[C@@H]1NC(=O)[C@@H](Cc2ccccc2)NC(=O)[C@H](Cc2c[nH]cn2)NC(=O)CCC(=O)NCCCCC(C(N)=O)NC(=O)[C@H](Cc2c[nH]c3ccccc23)NC1=O (some centres unmarked) [Example 1] (H[dF]RW[ξK]-NH2; linker N-5 via Suc) | 418 nM | 25 nM | 3100 nM | 110 nM | 3.3 nM | 1180 nM | – | – | –
N=C(N)NCCC[C@@H]1NC(=O)[C@@H](Cc2ccccc2)NC(=O)[C@H](Cc2c[nH]cn2)NC(=O)CCC(=O)NCCCCC(C(N)=O)NC(=O)[C@H](Cc2ccc3ccccc3c2)NC1=O (some centres unmarked) [Example 5] (H[dF]R[2Nal][ξK]-NH2; linker N-5 via Suc) | 440 nM | 13 nM | > 20000 nM | 360 nM | 3.7 nM | > 5000 nM | – | – | –
N=C(N)NCCC[C@@H]1NC(=O)[C@@H](Cc2ccccc2)NC(=O)[C@H](Cc2c[nH]cn2)NC(=O)CCCCNC(=O)CCC(C(N)=O)NC(=O)[C@H](Cc2c[nH]c3ccccc23)NC1=O (some centres unmarked) [Example 6] ([Ava]H[dF]RW[ξE]-NH2; lactam N-6) | 580 nM | 12 nM | 9000 nM | 190 nM | 2.7 nM | 1900 nM | – | – | –
N=C(N)NCCC[C@@H]1NC(=O)[C@@H](Cc2ccccc2)NC(=O)[C@H](Cc2c[nH]cn2)NC(=O)CCCNC(=O)CCC(C(N)=O)NC(=O)[C@H](Cc2c[nH]c3ccccc23)NC1=O (some centres unmarked) [Example 7] ([GABA]H[dF]RW[ξE]-NH2; lactam N-6) | 1830 nM | 41 nM | > 5000 nM | 310 nM | 5.7 nM | > 5000 nM | – | – | –
N=C(N)NCCC[C@@H]1NC(=O)[C@@H](Cc2ccccc2)NC(=O)[C@H](Cc2c[nH]cn2)NC(=O)CCNC(=O)CCC(C(N)=O)NC(=O)[C@H](Cc2c[nH]c3ccccc23)NC1=O (some centres unmarked) [Example 8] ([βAla]H[dF]RW[ξE]-NH2; lactam N-6) | 450 nM | – | 5050 nM | – | – | – | – | – | –
MTII | – | – | – | – | – | – | – | reduced food intake | –
SHU9119 | – | – | – | – | – | – | – | increased food intake; also recorded: stimulates food intake | increased food intake and body weight

Now from value to compound, other results behind:

IC50 (hMC-3R [1]) | IC50 (hMC-4R [2]) | IC50 (hMC-5R [3]) | EC50 (hMC-3R [4]) | EC50 (hMC-4R [5]) | EC50 (hMC-5R [6]) | CAMP Assay hMC-5R, % activation at a single concentration (hMC-5R [6]) | Compound | Food intake [7] | Body weight ([7]; intraventricular administration)
1800 nM | 35 nM | 7200 nM | 240 nM | 2.9 nM | 2200 nM | – | N=C(N)NCCC[C@@H]1NC(=O)[C@@H](Cc2ccccc2)NC(=O)[C@H](Cc2c[nH]cn2)NC(=O)CCC(=O)NCCC(C(N)=O)NC(=O)[C@H](Cc2c[nH]c3ccccc23)NC1=O (some centres unmarked) [Example 2] (H[dF]RW[ξDab]-NH2; linker N-5 via Suc) | – | –
1600 nM | 71 nM | 3600 nM | 590 nM | 33 nM | – | 12% @ 5 | N=C(N)NCCC[C@@H]1NC(=O)[C@@H](Cc2ccccc2)NC(=O)[C@H](Cc2c[nH]cn2)NC(=O)CCC(=O)NCC(C(N)=O)NC(=O)[C@H](Cc2c[nH]c3ccccc23)NC1=O (some centres unmarked) [Example 3] (H[dF]RW[ξDap]-NH2; linker N-5 via Suc) | – | –
17 nM | 1.7 nM | 92 nM | 40 nM | 0.74 nM | 170 nM | – | N=C(N)NCCC[C@@H]1NC(=O)[C@@H](Cc2ccc(Cl)cc2)NC(=O)[C@H](Cc2c[nH]cn2)NC(=O)CCC(=O)NCCCCC(C(N)=O)NC(=O)[C@H](Cc2c[nH]c3ccccc23)NC1=O (some centres unmarked) [Example 4] (H[dPhe(4-Cl)]RW[ξK]-NH2; linker N-5 via Suc) | – | –
> 1000 nM | 290 nM | > 1000 nM | 2200 nM | 35 nM | – | 15% @ 5 | N=C(N)NCCC[C@@H]1NC(=O)[C@@H](Cc2ccccc2)NC(=O)[C@H](Cc2c[nH]cn2)NC(=O)CNC(=O)CCC(C(N)=O)NC(=O)[C@H](Cc2c[nH]c3ccccc23)NC1=O (some centres unmarked) [Example 9] (GH[dF]RW[ξE]-NH2; lactam N-6) | – | –
